# In patent publication US12590062B2, “PD-1/PD-L1 inhibitors” (Gilead Sciences, Inc., priority 2017, dated 2026):
# What was measured:
# [1] = molecular target: PD-1/PD-L1 (Homo sapiens, UniProt Q9NZQ7); test: PD-1/PD-L1 biochemical protein-protein interaction assay (ALPHA); format: binding; conditions: 0.3 nM His tagged PD-L1, 2.5 nM biotinylated Fc-PD-1, 60 minutes at 25° C., read-out: IC50 PD-L1-PD-1 Alpha IC50-mono PD-L1-fcP-D1
# Protocol: Biological Activity PD-1/PD-L1 & CTLA/CD80 Biochemical Protein-Protein Interaction Assay
# Compounds were tested in biochemical protein-protein interaction assays to determine if they can specifically block the interaction between the extracellular domains of PD-1/PD-L1 or CTLA/CD80. Binding of the protein pairs is measured using a bead based Amplified Luminescent Proximity Homogeneous Assay (ALPHA) platform. Binding of each protein pair results in proximity of the donor and acceptor beads which leads to an increase in ALPHA signal. Disruption of the protein-protein interaction with a test compound results in a decrease in ALPHA signal. Assays are performed in 25 mM Hepes (pH 7.4), 150 mM NaCl, 3.4 mM EDTA, 0.005% Tween 20, and 0.01% BSA. Final protein concentration in the assays were 0.3 nM (His tagged PD-L1), 2.5 nM (biotinylated Fc-PD-1), 1 nM (His tagged CTLA4) and 1 nM (biotinylated CD80). After an assay reaction time of 60 minutes at 25° C., binding was measured with addition of 20 μg/mL ALPHA assay acceptor beads (anti-His coated) and […] ALPHA assay donor beads (streptavidin coated). IC50 values were calculated from the fit of the dose-response curves to a four-parameter equation. Representative data are shown below in Table 1.
# [2] = molecular target: T1, PD-1/PD-L1 interaction (Homo sapiens, UniProt Q9NZQ7); test: PD-1/PD-L1 NFAT reporter co-culture assay; format: cell-based; conditions: Jurkat PD-1 NFAT-luciferase cells co-cultured with aAPC-PD-L1 CHO cells, 6 hrs at 37° C.; read-out: EC50 NFAT Luciferase
# T1 construct: expressed in transfected cells; host or cells: CHO cells (aAPC-PD-L1) co-cultured with Jurkat cells overexpressing PD-1 and an NFAT-luciferase reporter
# T1 sequence (Q9NZQ7 19-290): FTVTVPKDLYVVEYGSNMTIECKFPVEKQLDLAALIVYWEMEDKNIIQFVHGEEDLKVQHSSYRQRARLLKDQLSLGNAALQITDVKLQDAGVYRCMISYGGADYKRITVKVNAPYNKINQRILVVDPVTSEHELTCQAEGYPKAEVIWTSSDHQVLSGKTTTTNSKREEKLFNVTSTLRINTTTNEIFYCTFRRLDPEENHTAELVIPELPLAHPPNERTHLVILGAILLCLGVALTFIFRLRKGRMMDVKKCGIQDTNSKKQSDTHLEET
# In short: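 Compounds are scored by restoration of NFAT-luciferase signal in PD-1-expressing Jurkat cells cultured 6 h at 37 °C on CHO cells presenting anti-CD3 and PD-L1; EC50 values derive from four-parameter curve fitting.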
# Chain of PD-1/PD-L1 (Q9NZQ7 19-238 limits assumed): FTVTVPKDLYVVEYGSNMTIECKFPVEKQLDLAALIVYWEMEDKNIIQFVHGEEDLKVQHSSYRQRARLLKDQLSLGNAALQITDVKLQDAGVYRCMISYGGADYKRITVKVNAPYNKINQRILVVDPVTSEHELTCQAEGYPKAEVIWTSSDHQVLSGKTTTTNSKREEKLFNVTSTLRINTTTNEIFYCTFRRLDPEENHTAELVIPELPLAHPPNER
Structure (SMILES),IC50 [1] [nM],EC50 [2] [nM]
"Cc1c(COc2cc(OCc3cncc(C#N)c3)c(CN3CCCCC3)cc2Cl)cccc1-c1cccc(COc2cc(OCc3cncc(C#N)c3)c(CN3CCCCC3)cc2Cl)c1C [Example 15, 5,5′-((((((2,2′-dimethyl-[1,1′-biphenyl]-3,3′-diyl)bis(methylene))bis(oxy))bis(4-chloro-6-(piperidin-1-ylmethyl)-3,1-phenylene))bis(oxy))bis(methylene))dinicotinonitrile]",1250,5710
"COc1nc(OCc2cccc(-c3cccc(COc4ccc(CNCCNC(C)=O)c(OC)n4)c3C)c2C)ccc1CNCCNC(C)=O [Example 18, N,N′-(((((((2,2′-dimethyl-[1,1′-biphenyl]-3,3′-diyl)bis(methylene))bis(oxy))bis(2-methoxypyridine-6,3-diyl))bis(methylene))bis(azanediyl))bis(ethane-2,1-diyl))diacetamide]",16.2,≥ 50000
"COc1nc(OCc2cccc(-c3cccc(COc4ccc(CNC[C@@H](O)CC(=O)O)c(OC)n4)c3C)c2C)ccc1CNC[C@@H](O)CC(=O)O [Example 19, (3S,3′S)-4,4′-((((((2,2′-dimethyl-[1,1′-biphenyl]-3,3′-diyl)bis(methylene))bis(oxy))bis(2-methoxypyridine-6,3-diyl))bis(methylene))bis(azanediyl))bis(3-hydroxybutanoic acid)]",1.1,5140
"COc1nc(OCc2cccc(-c3cccc(COc4ccc(CNCCO)c(OC)n4)c3C)c2C)ccc1CNCCO [Example 21, 2,2′-((((((2,2′-dimethyl-[1,1′-biphenyl]-3,3′-diyl)bis(methylene))bis(oxy))bis(2-methoxypyridine-6,3-diyl))bis(methylene))bis(azanediyl))bis(ethan-1-ol)]",17,1370
"Cc1c(COc2cc(OCc3cccnc3)c(CNCCO)cc2Cl)cccc1-c1cccc(COc2cc(OCc3cccnc3)c(CNCCO)cc2Cl)c1C [Example 22, 2,2′-((((((2,2′-dimethyl-[1,1′-biphenyl]-3,3′-diyl)bis(methylene))bis(oxy))bis(5-chloro-2-(pyridin-3-ylmethoxy)-4,1-phenylene))bis(methylene))bis(azanediyl))bis(ethan-1-ol)]",34.9,2070
"N#Cc1cncc(COc2cc(OCc3cccc(-c4cccc(COc5cc(OCc6cncc(C#N)c6)c(CNCCO)cc5Cl)c4)c3)c(Cl)cc2CNCCO)c1 [Example 25, 5,5′-((((([1,1′-biphenyl]-3,3′-diylbis(methylene))bis(oxy))bis(4-chloro-6-(((2-hydroxyethyl)amino)methyl)-3,1-phenylene))bis(oxy))bis(methylene))dinicotinonitrile]",20.9,3760
"COc1nc(OCc2cccc(-c3cccc(COc4ccc(CN5C[C@@H](O)CC5=O)c(OC)n4)c3C)c2C)ccc1CNC[C@@H](O)CC(=O)O [Example 26, (S)-3-hydroxy-4-(((6-((3′-(((5-(((S)-4-hydroxy-2-oxopyrrolidin-1-yl)methyl)-6-methoxypyridin-2-yl)oxy)methyl)-2,2′-dimethyl-[1,1′-biphenyl]-3-y)methoxy)-2-methoxypyridin-3-yl)methyl)amino)butanoic acid]",16.2,18900
"Cc1c(COc2cc(OCc3cncc(C#N)c3)c(CNC[C@@H](O)CC(=O)O)cc2Br)cccc1-c1cccc(COc2cc(OCc3cncc(C#N)c3)c(CNC[C@@H](O)CC(=O)O)cc2Br)c1C [Example 33, (3S,3′S)-4,4′-((((((2,2′-dimethyl-[1,1′-biphenyl]-3,3′-diyl)bis(methylene))bis(oxy))bis(5-bromo-2-((5-cyanopyridin-3-yl)methoxy)-4,1-phenylene))bis(methylene))bis(azanediyl))bis(3-hydroxybutanoic acid)]",0.4,322

# More lines, in order of falling IC50 [1], values ahead:
IC50 [1] [nM],EC50 [2] [nM],Structure (SMILES)
41.7,1890,"COc1nc(OCc2cccc(-c3cccc(COc4ccc(CNC[C@@H](C)O)c(OC)n4)c3C)c2C)ccc1CNC[C@@H](C)O [Example 24, (2R,2′R)-1,1′-((((((2,2′-dimethyl-[1,1′-biphenyl]-3,3′-diyl)bis(methylene))bis(oxy))bis(2-methoxypyridine-6,3-diyl))bis(methylene))bis(azanediyl))bis(propan-2-ol)]"
40.6,≥ 50000,"COc1nc(OCc2cccc(-c3cccc(COc4ccc(CNC[C@H](C)O)c(OC)n4)c3C)c2C)ccc1CNC[C@H](C)O [Example 23, (2S,2′S)-1,1′-((((((2,2′-dimethyl-[1,1′-biphenyl]-3,3′-diyl)bis(methylene))bis(oxy))bis(2-methoxypyridine-6,3-diyl))bis(methylene))bis(azanediyl))bis(propan-2-ol)]"
21.6,1070,"C=Cc1cc(CNCCO)c(OCc2cncc(C#N)c2)cc1OCc1cccc(-c2cccc(COc3cc(OCc4cncc(C#N)c4)c(CNCCO)cc3C=C)c2C)c1C [Example 36, 5,5′-((((((2,2′-dimethyl-[1,1′-biphenyl]-3,3′-diyl)bis(methylene))bis(oxy))bis(6-(((2-hydroxyethyl)amino)methyl)-4-vinyl-3,1-phenylene))bis(oxy))bis(methylene))dinicotinonitrile]"
12.7,663,"Cc1c(COc2cc(OCCN3CCOCC3)c(CNCCO)cc2Cl)cccc1-c1cccc(COc2cc(OCCN3CCOCC3)c(CNCCO)cc2Cl)c1C [Example 28, 2,2′-((((((2,2′-dimethyl-[1,1′-biphenyl]-3,3′-diyl)bis(methylene))bis(oxy))bis(5-chloro-2-(2-morpholinoethoxy)-4,1-phenylene))bis(methylene))bis(azanediyl))bis(ethan-1-ol)]"
2.8,2670,"Cc1c(COc2cc(OCc3cncc(C#N)c3)c(CNC[C@@H](O)CC(=O)O)cc2Br)cccc1-c1cccc(COc2cc(OCc3cncc(C#N)c3)c(CN3C[C@@H](O)CC3=O)cc2Br)c1C [Example 38, (S)-4-((5-bromo-4-((3′-((2-bromo-5-((5-cyanopyridin-3-yl)methoxy)-4-(((S)-4-hydroxy-2-oxopyrrolidin-1-yl)methyl)phenoxy)methyl)-2,2′-dimethyl-[1,1′-biphenyl]-3-yl)methoxy)-2-((5-cyanopyridin-3-yl)methoxy)benzyl)amino)-3-hydroxybutanoic acid]"
2.3,25300,"COc1cc(OCc2cccc(-c3cccc(COc4ccc(CNC[C@@H](O)CC(=O)O)c(OC)n4)c3C)c2C)ccc1CNC[C@@H](O)CC(=O)O [Example 27, (S)-4-(((6-((3′-((4-((((S)-3-carboxy-2-hydroxypropyl)amino)methyl)-3-methoxyphenoxy)methyl)-2,2′-dimethyl-[1,1′-biphenyl]-3-yl)methoxy)-2-methoxypyridin-3-yl)methyl)amino)-3-hydroxybutanoic acid]"
0.3,1610,"Cc1c(COc2ccc(CNC[C@@H](O)CC(=O)O)cc2)cccc1-c1cccc(COc2cc(OCc3cncc(C#N)c3)c(CNC[C@@H](O)CC(=O)O)cc2Cl)c1C [Example 17, (S)-4-((4-((3′-((4-((((S)-3-carboxy-2-hydroxypropyl)amino)methyl)-2-chloro-5-((5-cyanopyridin-3-yl)methoxy)phenoxy)methyl)-2,2′-dimethyl-[1,1′-biphenyl]-3-yl)methoxy)benzyl)amino)-3-hydroxybutanoic acid]"
0.3,822,"Cc1c(COc2cc(OCc3cncc(C#N)c3)c(CN3C[C@@H](O)C[C@H]3C(=O)O)cc2Cl)cccc1-c1cccc(COc2cc(OCc3cncc(C#N)c3)c(CN3C[C@@H](O)C[C@H]3C(=O)O)cc2Cl)c1C [Example 58, (2S,2′S,4S,4'S)-1,1′-(((((2,2′-dimethyl-[1,1′-biphenyl]-3,3′-diyl)bis(methylene))bis(oxy))bis(5-chloro-2-((5-cyanopyridin-3-yl)methoxy)-4,1-phenylene))bis(methylene))bis(4-hydroxypyrrolidine-2-carboxylic acid)]"
0.1,176,"Cc1c(COc2nc(OCc3cncc(S(C)(=O)=O)c3)c(CN[C@](C)(CO)C(=O)O)cc2Br)cccc1-c1cccc(COc2nc(OCc3cncc(S(C)(=O)=O)c3)c(CN[C@](C)(CO)C(=O)O)cc2Br)c1C [Example 40, (2R,2′R)-2,2′-((((((2,2′-dimethyl-[1,1′-biphenyl]-3,3′-diyl)bis(methylene))bis(oxy))bis(5-bromo-2-((5-(methylsulfonyl)pyridin-3-yl)methoxy)pyridine-6,3-diyl))bis(methylene))bis(azanediyl))bis(3-hydroxy-2-methylpropanoic acid)]"
